Legend:
[1] = system: C2C12 muscle cells; test: Glucose uptake assay with 2-NBDG; format: cell-based; conditions: 2 µM compound, 60 min treatment
Description: (§1) Figure 6 The compounds affected the distribution of GLUT4 proteins and facilitated glucose uptake in the C2C12 muscle cells. The GLUT4 proteins were visualized via the green fluorescent FITC labeled-GLUT4 antibody. […] The white arrows show the presence of GLUT4 near the plasma membrane, and the red arrows show the presence of GLUT4 within the nucleus. The figures denote the time lapse (m = minutes) after treatment. The images were captured using a LSM710 laser scanning microscope with a 63X oil immersion objective (Carl Zeiss, Oberkochen, Germany); (F) The amount of 2-NBDG uptake in the cells after treatment 6OA, DS and Sw or insulin was quantified at OD 510 nm. The fold increase was plotted against the treated concentration of natural compounds. The symbol * denotes a significant difference at p < 0.05 compared with DMSO (Tukey’s test, n = 6), DMSO = 1.
C2C12 cells were grown and differentiated in 96-well culture plates. The differentiated C2C12 muscle cells were treated with DMSO, insulin, and S. macrophylla compounds for 60 min in DMEM + 0.1% (w/v) BSA. After washing three times with Krebs-Ringer Phosphate H (KRPH) buffer + 0.1% (w/v) BSA, the cells were incubated with 100 μM 2-NBDG for 15 min. After washing three times with KRPH buffer + 0.1% (w/v) BSA, the uptake of 2-NBDG was observed under a fluorescence microscope, and the fluorescence of 2-NBDG was measured with a microplate reader (Perkin Elmer, Waltham, MA, USA).

[2] = system: 3T3-L1 preadipocyte cells; test: Adipocyte differentiation assay, Oil Red O staining of lipid droplets; format: cell-based; conditions: for induction of 3T3-L1 differentiation into lipid-producing adipocytes: 2–50 µM, lower level than insulin and rosiglitazone; for ORO stained lipid droplets, fold higher than vehicle treated cells: compounds 2–50 µM; for first appearance of lipid droplets after treatment: 3T3-L1 cells
Protocol: Figure 4 The semi-quantification of lipid droplets produced by differentiated 3T3-L1 cells at day 7 after the compound treatment. The quantification was performed by dissolving the cells in isopropanol and measuring the absorbance read out at 510 nm. […] The symbol ** denotes a significant difference at p < 0.01 compared with DMSO (Tukey’s test, n = 3).
3T3-L1 and C2C12 cells were purchased from the American Type Culture Collection (Manassas, VA, USA). The 3T3-L1 and C2C12 cells were maintained in DMEM medium supplemented with 10% (v/v) bovine serum and 10% (v/v) fetal bovine serum (FBS), respectively. The differentiation of adipocytes was initiated two days after the cells reached confluence by adding 0.5 mM isobutyl methylxanthine (IBMX), 1 µM dexamethasone and 1 µg/mL insulin to DMEM containing 10% (v/v) FBS. Two days later, the differentiation medium was replaced by DMEM containing 10% (v/v) FBS and 1 µg/mL insulin. These differentiated cells were stabilized in DMEM + 10% (v/v) FBS for another 2 days. C2C12 myocytes were induced to differentiate by substituting 10% (v/v) FBS with 10% (v/v) horse serum once the cells reached confluence. Fresh differentiation medium was replaced every two days until the myotube formation was complete.
Adipocyte differentiation is one of the major cellular responses upon PPARγ activation. 3T3-L1 pre-adipocyte cells were seeded on 24-well plates at 5 × 10^4 cells per well. Two days after reaching confluence, the cells were triggered to differentiate by insulin (positive control), DMSO (negative control), TZD, and the three natural compounds isolated from S. macrophylla (6OA, DS and Sw). […] For visualization, lipid droplets were stained by Oil Red O (ORO). The trapped ORO between the lipid droplets was then dissolved in absolute isopropanol, and the absorbance of the dissolved ORO was semi-quantitatively measured by a SpectraMax M5 multi-detection microplate reader (Molecular Devices) at a wavelength of 510 nm.

[3] = system: C2C12 muscle cells; test: GLUT4 translocation assay (immunofluorescence); format: cell-based; conditions: for GLUT4 translocation to the plasma membrane / time at which GLUT4 translocation occurs after treatment: 2 µM compound
Description: as §1
The differentiated C2C12 muscle cells cultured in 8-well chamber slides were treated with DMSO, insulin and S. macrophylla compounds for 15, 30, 60 and 120 min in DMEM low glucose + 0.1% (w/v) BSA. The cells were then fixed with 4% (v/v) paraformaldehyde, washed with MAXwash^TM washing medium (Active Motif, Tokyo, Japan) and blocked with Maxblock^TM blocking medium (Active Motif). The cells were incubated with the GLUT4 antibody for 16 h at 4 °C and then with the fluorescent conjugated secondary antibody for 2 h at room temperature. 100 µL of Fluoroshield^TM with DAPI (Sigma-Aldrich, St. Louis, MO, USA) was added to each well and mounted with a cover slip for imaging.

[4] = biological target: T1, recombinant PPARγ (Homo sapiens, UniProt P37231); test: ELISA PPARγ-binding assay (ligand-dependent binding of PPARγ to p300 coactivator); conditions: highest binding; p300-coated plate, absorbance 405 nm
T1 construct: amino acid positions 107–477 for PPARγ; His tag (pET28a) (N); made in house; host or cells: E. coli BL21
T1 sequence (P37231 107-477 isoform P37231-2): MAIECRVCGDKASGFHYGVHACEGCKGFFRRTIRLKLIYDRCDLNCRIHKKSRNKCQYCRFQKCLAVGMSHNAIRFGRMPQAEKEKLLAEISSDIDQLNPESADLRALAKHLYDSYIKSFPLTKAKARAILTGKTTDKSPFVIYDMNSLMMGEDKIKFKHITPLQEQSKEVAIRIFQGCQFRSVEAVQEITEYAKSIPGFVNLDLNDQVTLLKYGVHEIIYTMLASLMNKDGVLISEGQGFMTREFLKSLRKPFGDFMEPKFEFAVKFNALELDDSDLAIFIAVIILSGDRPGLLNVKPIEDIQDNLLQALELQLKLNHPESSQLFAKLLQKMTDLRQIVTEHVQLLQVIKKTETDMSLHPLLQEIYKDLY
T1 sequence (Q09472 39-221 partner limits assumed): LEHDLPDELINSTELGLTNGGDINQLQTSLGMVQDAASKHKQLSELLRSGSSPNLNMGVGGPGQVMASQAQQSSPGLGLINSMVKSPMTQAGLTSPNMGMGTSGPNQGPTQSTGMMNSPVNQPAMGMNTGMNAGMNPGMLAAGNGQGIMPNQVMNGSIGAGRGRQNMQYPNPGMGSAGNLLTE
Protocol: The truncated p300 recombinant protein included a specific binding domain, LXXLL, for protein-protein interactions between p300 and PPARγ.
The ELISA binding assay used is based on the principle of binding between the ligand-dependent PPARγ and its coactivator. Briefly, 5 µg of purified recombinant p300, a PPARγ coactivator, was used to coat a 96-well microtitre plate in the presence of coating buffer (150 mM Na2CO3, 350 mM NaHCO3, pH 9.6). The plate was incubated for 2 h at room temperature. Nonspecific binding sites were blocked with 100 µL of blocking buffer [2% (w/v) BSA in 10 mM PBS, pH 7.2] for 2 h at room temperature. The recombinant PPARγ cell lysate was prepared by using the freeze/thaw cell lysis method [37]. […] These mixtures were added to the p300-coated 96-well plate, which was then incubated for 1 h at 37 °C. The presence of the PPARγ ligand led to the formation of a p300-PPARγ-ligand complex. The detection of this complex was performed through the addition of 100 µL of anti-PPARγ antibody (1:1000 dilutions) and incubation for 1 h at room temperature. Subsequently, 100 µL of the AP conjugated donkey anti-goat antibody (1:1000 dilutions) was added into each well, and the plates were at room temperature for 1 h. The pNPP substrate solution (100 µL) was added to each well and incubated for 1 h at room temperature in the dark. Finally, 2.0 N sulphuric acid (50 µL per well) was added to each well to stop the enzymatic reaction. The absorbance at 405 nm was detected with a microplate reader (SpectraMax M5, Molecular Devices, Sunnyvale, CA, USA). Throughout the procedures, the microtitre plate was washed three times with washing buffer [10 mM PBS, pH 7.2, containing 0.1% (v/v) Tween 20] after each incubation step.

[5] = system: differentiated 3T3-L1 adipocyte cells; test: mRNA expression of PPARγ and adipogenic markers by quantitative RT-PCR; format: cell-based; conditions: 2 µM compound, 7 days; for PPARγ mRNA expression, fold elevation: vs DMSO; for expression levels of adipogenic markers (adiponectin, adipsin, PPARγ, GLUT4): 50 nM rosiglitazone or 1 μM insulin, normalized to β-actin, DMSO = 1
Protocol: Figure 5 The analysis of PPARγ and selected adipogenic gene expression in differentiated 3T3-L1 adipocyte cells with quantitative RT-PCR. […] The expression values were normalized against a housekeeping gene, β-actin.
For the gene expression study, mature 3T3-L1 adipocytes were lysed 7 days after the induction of cellular differentiation. The total RNA samples were prepared according to the manufacturer's protocol (TRIzol reagent, Invitrogen Life Technologies, Carlsbad, CA, USA). The mRNA expression of the target genes was measured by quantitative RT-PCR with an iCycler iQ5 PCR Thermal Cycler (Bio-Rad Laboratories, Hercules, CA, USA). The primers for the adipogenesis-related genes, adiponectin, adipsin, GLUT4 and PPARγ, were designed using Primer 3 software (Table 1). Real-time PCR was performed according to the manufacturer’s protocol (SYBR-Green One-Step Quantitative RT-PCR). Briefly, 5 ng of total RNA, 50 nM of each primer, iScript RT enzyme and the universal SYBR Green reaction mix (Bio-Rad Laboratories) were mixed well in a final volume of 30 µL. All the PCR reactions were performed as follows: 1 cycle of 50 °C for 2 min and 95 °C for 10 min, followed by 40 cycles of 95 °C for 15 s and 60 °C for 1 min. The PCR products were subjected to a melting-curve analysis. The expression levels were normalized against a housekeeping gene, β-actin, and the expression levels of the genes in the DMSO treated cells were designated as 1.

[6] = system: diabetic rats; conditions: diabetic rats ref 5; cited from earlier work

Row | Compound | fold increase of binding between PPARγ and coactivator compared to vehicle (DMSO) [4] [fold] | glucose (2-NBDG) uptake [1] | induction of 3T3-L1 differentiation into lipid-producing adipocytes [2] | ORO stained lipid droplets, fold higher than vehicle treated cells ([2]; day 7) | GLUT4 translocation to the plasma membrane [3] | time at which GLUT4 translocation occurs after treatment [3] [min] | PPARγ mRNA expression, fold elevation [5] | expression levels of adipogenic markers (adiponectin, adipsin, PPARγ, GLUT4) [5] | first appearance of lipid droplets after treatment [2] [days] | elevated cholesterol and triglyceride levels [6] | ORO stained lipid droplets, fold higher than vehicle (DMSO) ([2]; 1 µM insulin, day 7) [fold] | time at which GLUT4 translocation occurs after stimulation ([3]; 200 nM insulin) [min]
1 | CN(CCOc1ccc(CC2SC(=O)NC2=O)cc1)c1ccccn1 (stereo not shown) [Rosiglitazone, rosiglitazone, reference compound] | – | – | – | – | – | – | – | increase | 5 | – | – | –
2 | C/C=C(\C)C(=O)OC1C2C=C3C(CC[C@@]4(C)C3CC(=O)O[C@H]4c3ccoc3)[C@@](C)(C2=O)C(C(O)C(=O)OC)C1(C)C (stereo partly shown) [Sw, swietenine] | 36 | significant increase | induce 3T3-L1 cells differentiation into lipid-producing adipocytes | 1.3–1.6 fold | increase in GLUT4 translocation | 15 | five- to six | increase | – | attenuate | – | –
3 | Insulin: known adipocyte differentiation inducer, positive control [reference compound] | – | – | – | – | – | – | – | significantly increased | 3 | – | 4.8 | 15

More lines, main results first:

Row | fold increase of binding between PPARγ and coactivator compared to vehicle (DMSO) [4] [fold] | Compound | glucose (2-NBDG) uptake [1] | induction of 3T3-L1 differentiation into lipid-producing adipocytes [2] | ORO stained lipid droplets, fold higher than vehicle treated cells ([2]; day 7) | GLUT4 translocation to the plasma membrane [3] | time at which GLUT4 translocation occurs after treatment [3] [min] | PPARγ mRNA expression, fold elevation [5] | expression levels of adipogenic markers (adiponectin, adipsin, PPARγ, GLUT4) [5] | first appearance of lipid droplets after treatment [2] [days] | elevated cholesterol and triglyceride levels [6] | ORO stained lipid droplets, fold higher than vehicle (DMSO) ([2]; 1 µM insulin, day 7) [fold] | time at which GLUT4 translocation occurs after stimulation ([3]; 200 nM insulin) [min]
4 | 50 | COC(=O)C(OC(C)=O)C1C(C)(C)C(O)C2CC3=C4CC(=O)O[C@@H](c5ccoc5)[C@@]4(C)CCC3[C@@]1(C)C2=O (stereo partly shown) [6OA, 6-O-acetylswietenolide] | significant increase | induce 3T3-L1 cells differentiation into lipid-producing adipocytes | 1.3–1.6 fold | increase in GLUT4 translocation | 15 | five- to six | increase | – | – | – | –
5 | 38 | COC(=O)C(OC(C)=O)C1C(C)(C)C(OC(C)=O)C2CC3=C4CC(=O)O[C@@H](c5ccoc5)[C@@]4(C)CCC3[C@@]1(C)C2=O (stereo partly shown) [DS, diacetyl swietenolide] | significant increase | induce 3T3-L1 cells differentiation into lipid-producing adipocytes | 1.3–1.6 fold | increase in GLUT4 translocation | ≥ 60 | five- to six | increase | – | – | – | –
